Residues, ends and D or L forms follow the SMILES beside them. No end group written: not given here. *: point of attachment. Tos = Cc1ccc(S(=O)(=O)*)cc1
Columns and labels:
[1] = test system: erythrocytes from fresh human blood; details: 5% erythrocytes, 1 h at 37° C., relative to 200 μM melittin; for % Haemolysis 50 μM: 50 μM peptide; for % Haemolysis 150 μM: 150 μM peptide; for % Haemolysis 250 μM: 250 μM peptide
Experimental: A description of the methodology used to determine the haemolytic activity is found in Oren et al, Biochemistry, 2000, 39, 6103-6114, and in Raguse et al., J. Am. Chem. Soc., 2002, 124, 12774-12785.
The haemolytic activity of the peptides of the invention was evaluated by determining the release of haemoglobin which is produced on placing in contact a solution of the peptides with a suspension of erythrocytes 5% by volume, from fresh human blood.
The blood was collected aseptically using a Vactainer® K2E system (Belliver, Great Britain) with EDTA and it was stored at 4° C. for a period lower than 2 hours.
The blood was centrifuged at 6000 g for 5 minutes to separate the erythrocytes. There were washed three times with TRIS buffer (10 mM TRIS, 150 mM NaCl, pH 7.2) and they were resuspended in TRIS buffer until obtaining a suspension which contained 10% by volume of erythrocytes.
The peptides were solubilized in TRIS buffer until a final concentration of 100, 300 and 500 μM
The replicas were used for each peptide and concentration.
65 μl of 10% erythrocyte suspension was mixed with 65 μl of the peptide solution in each well of a 96-well plate (Micro-Amp®, Applied Biosystems, USA) (5% by volume of erythrocytes) and the mixture was incubated for 1 h at 37° C. under stirring. In this way, the erythrocyte suspensions were subjected to peptide concentrations of 50, 150 and 250 μM.
Next, the plates were centrifuged at 3500 g during 10 minutes and aliquots were transferred of 80 μl of supernatant to microplates with 100 wells (Bioscreen), which were diluted with 80 μl of milli-Q water.
The degree of haemolysis was determined from the absorbance at 540 nm with a Bioscreen plate reader.
The complete positive haemolysis control was determined in a TRIS buffer solution which contained 200 μM melittin (Sigma-Aldrich, Spain)
The percentage of haemolysis (H) was determined using the following equation: H=100×[Op−Ob)/(Om−Ob)]
Where OP as the optical density measured for a determined peptide concentration, Ob was the optical density of the buffer solution, and Om was the optical density for the positive control with melittin.

[2] = test system: Xanthomonas vesicatori 2133-2; test: Minimum inhibitory concentration (MIC), microbial growth by optical density; details: 48 h incubation at 25° C., TSB medium
[3] = test system: Erwinia amylovora PMV6076; test: as above; format: cell-based; details: 48 h incubation at 25° C., TSB medium
Experimental: (§1) Each experiment was performed twice.

[4] = test system: Pseudomonas syringae EPS94; test: as above; format: cell-based; details: 48 h incubation at 25° C., TSB medium
Experimental: as §1

Compound | % Haemolysis 50 μM [1] [%] | % Haemolysis 150 μM [1] [%] | % Haemolysis 250 μM [1] [%] | range of concentrations including the MIC, X. vesicatoria [2] [µM] | range of concentrations including the MIC, E. amylovora [3] [µM] | range of concentrations including the MIC, P. syringae [4] [µM]
CC[C@H](C)[C@H](NC(=O)[C@H](CCCCN)NC(=O)[C@H](CCCCN)NC(=O)[C@H](Cc1ccccc1)NC(=O)[C@H](CC(C)C)NC(=O)[C@H](CCCCN)NC(=O)[C@H](Cc1ccc(O)cc1)NC(C)=O)C(=O)N[C@@H](CC(C)C)C(=O)N[C@@H](CCCCN)C(=O)N[C@@H](Cc1ccc(O)cc1)C(=O)N[C@@H](CC(C)C)C(N)=O [BP096] | 47 | 86 | 85 |  |  | 
Ac-YKLFKKILKKL-NH2 [BP120] |  |  |  | 5 to 7.5 | >7.5 | 5 to 7.5
CC[C@H](C)[C@H](NC(=O)[C@H](CCCCN)NC(=O)[C@H](CCCCN)NC(=O)[C@H](Cc1ccccc1)NC(=O)[C@H](CC(C)C)NC(=O)[C@H](CCCCN)NC(=O)[C@H](CCCCN)NC(C)=O)C(=O)N[C@@H](CC(C)C)C(=O)N[C@@H](CCCCN)C(=O)N[C@@H](CCCCN)C(=O)N[C@@H](CC(C)C)C(N)=O [BP124] | 1 | 5 | 23 |  |  | 
CC[C@H](C)[C@H](NC(=O)[C@H](CCCCN)NC(=O)[C@H](CCCCN)NC(=O)[C@H](Cc1ccccc1)NC(=O)[C@H](CC(C)C)NC(=O)[C@H](CCCCN)NC(=O)[C@H](Cc1ccc(O)cc1)NS(=O)(=O)c1ccc(C)cc1)C(=O)N[C@@H](CC(C)C)C(=O)N[C@@H](CCCCN)C(=O)N[C@@H](CCCCN)C(=O)N[C@@H](CC(C)C)C(N)=O [BP121] (Tos-YKLFKKILKKL-NH2) | 22 | 81 | 86 | 2.5 to 5 | >7.5 | 2.5 to 5
WKLFKKILKWL-NH2 [BP018] | 78 | 68 | 74 | 2.5 | 5 to 7.5 | 5 to 7.5
CC[C@H](C)[C@H](NC(=O)[C@H](CCCCN)NC(=O)[C@H](CCCCN)NC(=O)[C@H](Cc1ccccc1)NC(=O)[C@H](CC(C)C)NC(=O)[C@H](CCCCN)NC(=O)[C@H](CCCCN)NC(=O)c1ccccc1)C(=O)N[C@@H](CC(C)C)C(=O)N[C@@H](CCCCN)C(=O)N[C@H](C(=O)N[C@@H](CC(C)C)C(N)=O)C(C)C [BP031] | 34 | 71 | 76 | <2.5 | 2.5 to 5 | 5 to 7.5
LKLFKKILKKL-NH2 [BP128] | 2 | 31 | 66 |  |  | 
CC[C@H](C)[C@H](NC(=O)[C@H](CCCCN)NC(=O)[C@H](CCCCN)NC(=O)[C@H](Cc1ccccc1)NC(=O)[C@H](CC(C)C)NC(=O)[C@H](CCCCN)NC(=O)[C@H](CCCCN)NS(=O)(=O)c1ccc(C)cc1)C(=O)N[C@@H](CC(C)C)C(=O)N[C@@H](CCCCN)C(=O)N[C@@H](Cc1ccc(O)cc1)C(=O)N[C@@H](CC(C)C)C(N)=O [BP102] | 39 | 79 | 80 | <2.5 | 5 to 7.5 | 2.5 to 5
CC[C@H](C)[C@H](NC(=O)[C@H](CCCCN)NC(=O)[C@H](CCCCN)NC(=O)[C@H](Cc1ccccc1)NC(=O)[C@H](CC(C)C)NC(=O)[C@H](CCCCN)NC(=O)[C@H](Cc1ccc(O)cc1)NS(=O)(=O)c1ccc(C)cc1)C(=O)N[C@@H](CC(C)C)C(=O)N[C@@H](CCCCN)C(=O)N[C@@H](Cc1ccc(O)cc1)C(=O)N[C@@H](CC(C)C)C(N)=O [BP097] | 83 | 81 | 88 | <2.5 | >7.5 | >7.5

Source: patent US8026219B2, “Antimicrobial linear peptides” (Universitat de Girona, priority 2006, dated 2011)
